Columns and labels:
Assay type in all cases: in vivo
Conditions in all cases: same protocol, 200 ppm
[1] = tested on: Heliothis virescens (Tobacco Budworm); test: Heliothis virescens egg test on artificial diet
Protocol: Eggs (0-24 h old) were placed in 24-well microtiter plate on artificial diet and treated with test solutions at an application rate of 200 ppm (concentration in well 18 ppm) by pipetting. After an incubation period of 4 days, samples were checked for egg mortality, larval mortality, and growth regulation.

[2] = tested on: Plutella xylostella (Diamond Back Moth); test: Plutella xylostella larvae test on artificial diet
Protocol: (§1) 24-well microtiter plate (MTP) with artificial diet was treated with test solutions at an application rate of 200 ppm (concentration in well 18 ppm) by pipetting. After drying, the MTP's were infested with L2 larvae (7-12 per well). After an incubation period of 6 days, samples were checked for larval mortality and growth regulation.

[3] = tested on: Spodoptera littoralis (Egyptian Cotton Leafworm); test: Spodoptera littoralis cotton leaf disc spray test
Excerpt: Cotton leaf discs were placed on agar in a 24-well microtiter plate and sprayed with test solutions at an application rate of 200 ppm. After drying, the leaf discs were infested with 5 L1 larvae. The samples were checked for mortality, feeding behavior, and growth regulation 3 days after treatment (DAT).

[4] = tested on: Thrips tabaci (Onion Trips); test: Thrips tabaci sunflower leaf disc spray test
[5] = tested on: Diabrotica balteata (Corn Root Worm); test: Diabrotica balteata larvae test on artificial diet
Protocol: as §1, with “A 24-well” for “24-well”, “(6-10” for “(7-12”, “5” for “6”

[6] = tested on: Tetranychus urticae (Two-Spotted Spider Mite); test: Tetranychus urticae bean leaf disc spray test
Excerpt: Bean leaf discs on agar in 24-well microtiter plates were sprayed with test solutions at an application rate of 200 ppm. After drying, the leaf discs are infested with mite populations of mixed ages. 8 days later, discs are checked for egg mortality, larval mortality, and adult mortality.

Measured: effect on mortality, feeding behavior, or growth regulation

Cc1cc(C2=NOC(c3cc(Cl)cc(Cl)c3)(C(F)(F)F)C2)ccc1C(=O)NCC1CCN1Cc1ccccc1 (stereo not drawn) [B2]
little or no effect: all assays above

N#Cc1cc(C2=NOC(c3cc(Cl)cc(Cl)c3)(C(F)(F)F)C2)ccc1C(=O)NC1CSC1 (stereo not drawn) [A19]
little or no effect: all assays above

CC1(NC(=O)c2ccc(C3=NOC(c4cc(Cl)cc(Cl)c4)(C(F)(F)F)C3)cc2C#N)CSC1 (stereo not drawn) [A18]
little or no effect: all assays above
